Results as given in US20250051375A1, “ANTI-HIV COMPOUNDS” (Gilead Sciences, Inc., priority 2023, published 2025).
Values after ≈ are worked out from the molar mass of the structure shown. Like-named read-outs stand apart in the source and are kept apart here.

Key:
[1] = test system: HIV-1 IIIB strain; assay: MT-4 HIV Wild Type Virus Infection Assay (IIIB Virus); type: cell-based; details: MT-4 cells acutely infected with HIV-1 IIIB, 5 day incubation, Cell-titer glo
Summary of the method: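 MT-4 cells at 2×10^6 cells/ml in RPMI/10% FBS were acutely infected with HIV-1 IIIB for 1 h at 37° C, diluted 25× and added to serially diluted compounds. After 5 days at 37° C, viability read by CellTiter-Glo luminescence; EC50 from dose-response curves.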

[2] = molecular target: bovine intestinal alkaline phosphatase (Bos taurus (Bovine), UniProt P19111); assay: BiALP: conversion by bovine intestinal alkaline phosphatase; type: in vitro ADME; details: 2 μM substrate, 100 ng/mL iALP, Tris pH 7.8, 37° C., 60 minutes; for [Intermediate A] or [Amprenavir]: parent formed
Summary of the method: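 Compounds at 2 μM final were incubated 60 min at 37° C in 0.1 M Tris-HCl pH 7.8 with 1 mM MgCl2 and 1 mM ZnCl2, with or without 100 ng/mL iALP (0.01 units/mL). Samples were quenched with acetonitrile/formic acid containing labetalol. Conversion was quantified by LC-MS peak area ratios against a 2 μM product standard.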

[3] = PBS Stability Assay; type: physicochemical; details: phosphate buffered saline pH 7.4; for half-life at 2 μM: buffer, pH 7.4, 2 μM, read-out: PBS T½
Protocol: Reagents. Stock solutions of test compounds in dimethyl sulfoxide (DMSO) having a final concentration of 10 mM were prepared and used in all experiments. Sekisui XenoTech (Kansas City, KS) provided pooled intestinal S9 fractions. All other chemicals were purchased from Sigma-Aldrich (St. Louis, MO) or VWR (West Chester, PA). Internal Standard/Quench (IS/Q) used to stop reactions was 100 nM labetalol in (by volume) formic acid (1%) and acetonitrile (99%).
PBS Stability Assay: For each test compound, an aliquot of the test compound was added to phosphate buffered saline (137 mM NaCl, 2.7 mM KCl, 10 mM phosphate buffer), pH 7.4. The incubation was initiated by the addition of the test compound to PBS to a final concentration of 2 μM. At 0, 10, 20, 30, 60 and 120 min, 25 μL aliquots of the incubation mixture were transferred to plates containing 225 μl of IS/Q solution. After quenching, the plates were centrifuged at 3000×g for 30 minutes. 150 μL aliquots of each supernatant were transferred to new plates and 150 μL water was added. Aliquots (10 μL) of the prepared samples were analyzed on a Thermo Q-Exactive mass spectrometer as described below.
Liquid Chromatography-Mass Spectrometry: Quantification of test compounds and control substrate was performed by analyte/internal standard peak area ratio (PAR) values measured on a Thermo Q-Exactive mass spectrometer coupled to a Dionex UltiMate 3000 HPLC with a Leap Technologies HTC PAL autosampler. The column used for analysis was a Thermo Scientific Hypersil GOLD (1.9 μm particle size, 50×2.1 mm). Mobile phase A consisted of 0.1% (v/v) formic acid in water. Mobile phase B consisted of 0.1% (v/v) formic acid in acetonitrile. Elution of analytes was achieved by a series of linear gradients varying the proportions of A and B. The mass spectrometer was calibrated on a weekly basis and mass tolerance of 5 ppm was used.
Data Analysis. Metabolic stabilities were determined by measuring the rates of disappearance of test compound and positive control substrate. Data (% of substrate remaining) were plotted on a semi-log scale and fitted using an exponential decline model:
where • Ct% of substrate remaining at time=t • C0% of substrate remaining at time=0 • t time • T½ half-life • The Half-life (T½) is determined by the following equation:
[formula] • Assuming a first-order reaction, the slope (k) is extrapolated from the aforementioned plotted data.

[4] = Solubility in FaSSIF; details: for solubility at 2 h: 23 °C, pH 6.5, fassif, thermodynamic from solid
Summary of the method: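 Concentration measured by HPLC-UV after solid compound was dosed at 5 mg/mL into pH 6.5 fasted-state simulated intestinal fluid containing taurocholate and lecithin (4:1 molar) and vortexed.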

[5] = Human immunodeficiency virus 1, IIIB, MT4, 120 h

bovine intestinal alkaline phosphatase, sequence (P19111 20-506): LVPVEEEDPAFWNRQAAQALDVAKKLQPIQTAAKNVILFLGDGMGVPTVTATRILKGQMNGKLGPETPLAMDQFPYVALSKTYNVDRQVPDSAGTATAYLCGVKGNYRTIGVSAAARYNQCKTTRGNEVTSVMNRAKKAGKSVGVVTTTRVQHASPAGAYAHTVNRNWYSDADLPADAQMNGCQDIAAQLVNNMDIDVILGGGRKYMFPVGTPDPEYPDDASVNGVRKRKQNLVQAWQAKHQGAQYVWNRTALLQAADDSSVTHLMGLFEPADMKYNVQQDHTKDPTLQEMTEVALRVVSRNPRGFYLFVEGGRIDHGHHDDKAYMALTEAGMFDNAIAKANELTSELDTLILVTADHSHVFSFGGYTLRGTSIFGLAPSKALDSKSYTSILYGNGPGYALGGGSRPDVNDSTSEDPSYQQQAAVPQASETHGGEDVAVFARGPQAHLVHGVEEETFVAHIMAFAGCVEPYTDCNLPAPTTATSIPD

| SMILES | EC50 [1, 5] [nM] | [Compound] [2] [nM] | half-life at 2 μM [3] [h] | solubility at 2 h [4] [µg/mL] | biALP Intermediate A or [Amprenavir] (% of total) [2] | [Intermediate A] or [Amprenavir] [2] [nM] | EC50 ([1]; read-out: EC50) [nM] | PBS T½ ([3]; 2 μM) [h] | FaSSIF (pH 6.5) solubility ([4]; FaSSIF pH 6.5, dose 5 mg/mL, 2-hour incubation, ambient temperature) [μg/mL] |
| --- | --- | --- | --- | --- | --- | --- | --- | --- | --- |
| COC(=O)N[C@H](C(=O)N[C@@H](Cc1ccc(C#Cc2cnc(N3CC4CCC(C3)N4C3COC3)nc2)cc1)[C@H](CN(Cc1c(F)cc(-c2ccn(C(F)F)n2)cc1F)NC(=O)[C@@H](NC(=O)OC)C(C)(C)C(F)(F)F)OC(=O)CC(C)(C)c1c(CC(=O)NC(CC(=O)O)CC(=O)O)cc(C)cc1OP(=O)(O)O)C(C)(C)C(F)(F)F [Example 43] | 85.9 | 1661.5 | 4.82 | 1920 (≈ 1190 µM) | – | – | – | – | – |
| COC(=O)N[C@H](C(=O)N[C@@H](Cc1ccc(C#Cc2cnc(N3CC4CCC(C3)N4C3COC3)nc2)cc1)[C@H](CN(Cc1c(F)cc(-c2ccn(C(F)F)n2)cc1F)NC(=O)[C@@H](NC(=O)OC)C(C)(C)C(F)(F)F)OC(=O)CC(C)(C)c1c(CC(=O)N(CCC(=O)O)[C@@H](CCC(=O)O)C(=O)O)cc(C)cc1OP(=O)(O)O)C(C)(C)C(F)(F)F [Example 44] | 528 | 1835.9 | 4.67 | 4550 (≈ 2700 µM) | – | – | – | – | – |
| COC(=O)N[C@H](C(=O)N[C@@H](Cc1ccc(C#Cc2cnc(N3CC4CCC(C3)N4C3COC3)nc2)cc1)[C@H](CN(Cc1c(F)cc(-c2ccn(C(F)F)n2)cc1F)NC(=O)[C@@H](NC(=O)OC)C(C)(C)C(F)(F)F)OC(=O)CC(C)(C)c1c(CC(=O)N[C@@H](Cc2c[nH]c3ccccc23)C(=O)O)cc(C)cc1OP(=O)(O)O)C(C)(C)C(F)(F)F [Example 48] | 201 | 2071.6 | 4.76 | 910 (≈ 545 µM) | – | – | – | – | – |
| COC(=O)N[C@H](C(=O)N[C@@H](Cc1ccc(C#Cc2cnc(N3CC4CCC(C3)N4C3COC3)nc2)cc1)[C@H](CN(Cc1c(F)cc(-c2ccn(C(F)F)n2)cc1F)NC(=O)[C@@H](NC(=O)OC)C(C)(C)C(F)(F)F)OC(=O)CC(C)(C)c1c(CC(=O)NCc2ccc(C(F)F)cc2)cc(C)cc1OP(=O)(O)O)C(C)(C)C(F)(F)F [Example 50, (5S,10S,11S,14S)-8-(4-(1-(difluoromethyl)-1H-pyrazol-3-yl)-2,6-difluorobenzyl)-11-(4-((2-(8-(oxetan-3-yl)-3,8-diazabicyclo[3.2.1]octan-3-yl)pyrimidin-5-yl)ethynyl)benzyl)-3,6,13,16-tetraoxo-5,14-bis(1,1,1-trifluoro-2-methylpropan-2-yl)-2,17-dioxa-4,7,8,12,15-pentaazaoctadecan-10-yl 3-(2-(2-((4-(difluoromethyl)benzyl)amino)-2-oxoethyl)-4-methyl-6-(phosphonooxy)phenyl)-3-methylbutanoate] | 1720 | 2228.1 | 8.26 | < 1000 | 0 % of total | 0.3 | – | – | – |
| COC(=O)N[C@H](C(=O)N[C@@H](Cc1ccc(C#Cc2cnc(N3CC4CCC(C3)N4C3COC3)nc2)cc1)[C@H](CN(Cc1c(F)cc(-c2ccn(C(F)F)n2)cc1F)NC(=O)[C@@H](NC(=O)OC)C(C)(C)C(F)(F)F)OC(=O)O[C@H](C)OC(=O)CC(C)(C)c1c(CC(=O)O)cc(C)cc1OP(=O)(O)O)C(C)(C)C(F)(F)F [Example 65] | – | 1224.6 | – | – | – | – | 12.6 | 11.15 | 1310 |
| COC(=O)N[C@H](C(=O)N[C@@H](Cc1ccc(C#Cc2cnc(N3CC4CCC(C3)N4C3COC3)nc2)cc1)[C@H](CN(Cc1c(F)cc(-c2ccn(C(F)F)n2)cc1F)NC(=O)[C@@H](NC(=O)OC)C(C)(C)C(F)(F)F)OC(=O)CC(C)(C)c1c(CC(=O)N2CC(C(=O)O)CC(C(=O)O)C2)cc(C)cc1OP(=O)(O)O)C(C)(C)C(F)(F)F (some centres unmarked) [Example 67] | 205 | 1747.2 | 4.32 | 3160 (≈ 1930 µM) | 9.1 % of total | 175.4 | – | – | – |
| COC(=O)N[C@H](C(=O)N[C@@H](Cc1ccc(C#Cc2cnc(N3CC4CCC(C3)N4C3COC3)nc2)cc1)[C@H](CN(Cc1c(F)cc(-c2ccn(C(F)F)n2)cc1F)NC(=O)[C@@H](NC(=O)OC)C(C)(C)C(F)(F)F)OC(=O)OCOC(=O)CC(C)(C)c1c(CC(=O)N[C@@H](CC(=O)O)C(=O)O)cc(C)cc1OP(=O)(O)O)C(C)(C)C(F)(F)F [Example 68] | 5.9 | 1478.2 | 6.27 | 4440 (≈ 2650 µM) | – | – | – | – | – |
| COC(=O)N[C@H](C(=O)N[C@@H](Cc1ccc(C#Cc2cnc(N3CC4CCC(C3)N4C3COC3)nc2)cc1)[C@H](CN(Cc1c(F)cc(-c2ccn(C(F)F)n2)cc1F)NC(=O)[C@@H](NC(=O)OC)C(C)(C)C(F)(F)F)OC(=O)OCOC(=O)CC(C)(C)c1c(CC(=O)NCP(=O)(O)O)cc(C)cc1OP(=O)(O)O)C(C)(C)C(F)(F)F [Example 69] | 3.5 | 1578.5 | 13.1 | 4950 (≈ 3000 µM) | – | – | – | – | – |
| COC(=O)N[C@H](C(=O)N[C@@H](Cc1ccc(C#Cc2cnc(N3CC4CCC(C3)N4C3COC3)nc2)cc1)[C@H](CN(Cc1c(F)cc(-c2ccn(C(F)F)n2)cc1F)NC(=O)[C@@H](NC(=O)OC)C(C)(C)C(F)(F)F)OC(=O)OCOC(=O)CC(C)(C)c1c(CC(=O)N[C@@H](CCC(=O)O)C(=O)O)cc(C)cc1OP(=O)(O)O)C(C)(C)C(F)(F)F [Example 70] | 6.6 | 1164.8 | 5.27 | 5570 (≈ 3300 µM) | – | – | – | – | – |
| COC(=O)N[C@H](C(=O)N[C@@H](Cc1ccc(C#Cc2cnc(N3CC4CCC(C3)N4C3COC3)nc2)cc1)[C@H](CN(Cc1c(F)cc(-c2ccn(C(F)F)n2)cc1F)NC(=O)[C@@H](NC(=O)OC)C(C)(C)C(F)(F)F)OC(=O)OCOC(=O)CC(C)(C)c1c(CC(=O)NCC(=O)O)cc(C)cc1OP(=O)(O)O)C(C)(C)C(F)(F)F [Example 71] | 3.9 | 1036.2 | 7.86 | 4420 (≈ 2740 µM) | – | – | – | – | – |
| COC(=O)N[C@H](C(=O)N[C@@H](Cc1ccc(C#Cc2cnc(N3CC4CCC(C3)N4C3COC3)nc2)cc1)[C@H](CN(Cc1c(F)cc(-c2ccn(C(F)F)n2)cc1F)NC(=O)[C@@H](NC(=O)OC)C(C)(C)C(F)(F)F)OC(=O)OCOC(=O)CC(C)(C)c1c(CC(=O)N[C@@H](CC(N)=O)C(=O)O)cc(C)cc1OP(=O)(O)O)C(C)(C)C(F)(F)F [Example 72] | 5.4 | 827.8 | 6.12 | 4980 (≈ 2980 µM) | – | – | – | – | – |
| COC(=O)N[C@H](C(=O)N[C@@H](Cc1ccc(C#Cc2cnc(N3CC4CCC(C3)N4C3COC3)nc2)cc1)[C@H](CN(Cc1c(F)cc(-c2ccn(C(F)F)n2)cc1F)NC(=O)[C@@H](NC(=O)OC)C(C)(C)C(F)(F)F)OC(=O)OCOC(=O)CC(C)(C)c1c(CC(=O)NC(C)(C)CCC(=O)O)cc(C)cc1OP(=O)(O)O)C(C)(C)C(F)(F)F [Example 73] | 4.6 | 1660.4 | 6.36 | 145 (≈ 86.7 µM) | – | – | – | – | – |
| COC(=O)N[C@H](C(=O)N[C@@H](Cc1ccc(C#Cc2cnc(N3CC4CCC(C3)N4C3COC3)nc2)cc1)[C@H](CN(Cc1c(F)cc(-c2ccn(C(F)F)n2)cc1F)NC(=O)[C@@H](NC(=O)OC)C(C)(C)C(F)(F)F)OC(=O)OCOC(=O)CC(C)(C)c1c(CC(=O)N2CC[C@H](C(=O)O)C2)cc(C)cc1OP(=O)(O)O)C(C)(C)C(F)(F)F [Example 75] | 8.1 | 1420.1 | 4.77 | 4170 (≈ 2520 µM) | – | – | – | – | – |
